{
  "source": "patent US10336732B2",
  "about": "“1-heterocyclyl isochromanyl compounds and analogs for treating CNS disorders” (Sunovion Pharmaceuticals Inc., priority 2015, dated 2019)",
  "data": [
    {"system": "mice", "experiment": "Neuropharmacological assay (SmartCube), behavioral signature of compound-treated mice", "assay_type": "in vivo", "conditions": "i.p. 15 min before behavioral test, most efficacious dose(s) of 3 doses", "how_it_was_run": "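Read-out is an automated video-based behavioral signature, scored as per-class probabilities (e.g., anxiolytic, antidepressant) against reference compounds. Dosing was i.p. at three doses, 15 min pre-test, in NMP, polyethylene glycol and propylene glycol. Values shown are from the most efficacious dose(s).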", "values": [
      {"smiles": "CC1(C)CN[C@H]([C@H]2OCCc3ccccc32)C1", "note": "[Compound I-60, (S)-2-((S)-isochroman-1-yl)-4,4-dimethylpyrrolidine]", "AD: ADHD (probability that behavioral signature matches class)": "+ (LOQ ≤ + <5%)", "AG: analgesic (probability that behavioral signature matches class)": "++ (5% ≤ ++ <25%)", "AX: anxiolytic (probability that behavioral signature matches class)": "++ (5% ≤ ++ <25%)", "CE: cognitive enhancer (probability that behavioral signature matches class)": "++ (5% ≤ ++ <25%)", "DP: anti-depressant (probability that behavioral signature matches class)": "++ (5% ≤ ++ <25%)", "HA: hallucinogen (probability that behavioral signature matches class)": "+ (LOQ ≤ + <5%)", "MS: mood stabilizer (probability that behavioral signature matches class)": "+ (LOQ ≤ + <5%)", "PS: anti-psychotic (probability that behavioral signature matches class)": "+++ (25% ≤ +++ <50%)", "SD: sedative hypnotic (probability that behavioral signature matches class)": "++ (5% ≤ ++ <25%)", "UN: uncharacterized CNS activity (probability that behavioral signature matches class)": "++ (5% ≤ ++ <25%)", "XG: anxiogenic (probability that behavioral signature matches class)": "+ (LOQ ≤ + <5%)"},
      {"smiles": "CC1(C)CN[C@@H]([C@@H]2OCCc3ccccc32)C1", "note": "[Compound I-61, (R)-2-((R)-isochroman-1-yl)-4,4-dimethylpyrrolidine]", "AD: ADHD (probability that behavioral signature matches class)": "+ (LOQ ≤ + <5%)", "AG: analgesic (probability that behavioral signature matches class)": "+++ (25% ≤ +++ <50%)", "AX: anxiolytic (probability that behavioral signature matches class)": "++ (5% ≤ ++ <25%)", "CE: cognitive enhancer (probability that behavioral signature matches class)": "+ (LOQ ≤ + <5%)", "DP: anti-depressant (probability that behavioral signature matches class)": "++ (5% ≤ ++ <25%)", "HA: hallucinogen (probability that behavioral signature matches class)": "+ (LOQ ≤ + <5%)", "MS: mood stabilizer (probability that behavioral signature matches class)": "++ (5% ≤ ++ <25%)", "PS: anti-psychotic (probability that behavioral signature matches class)": "++ (5% ≤ ++ <25%)", "SD: sedative hypnotic (probability that behavioral signature matches class)": "+ (LOQ ≤ + <5%)", "UN: uncharacterized CNS activity (probability that behavioral signature matches class)": "+ (LOQ ≤ + <5%)", "XG: anxiogenic (probability that behavioral signature matches class)": "++ (5% ≤ ++ <25%)"},
      {"smiles": "CC1(C)CN[C@@H]([C@H]2OCCc3ccccc32)C1", "note": "[Compound I-62, (R)-2-((S)-isochroman-1-yl)-4,4-dimethylpyrrolidine]", "AD: ADHD (probability that behavioral signature matches class)": "+ (LOQ ≤ + <5%)", "AG: analgesic (probability that behavioral signature matches class)": "++ (5% ≤ ++ <25%)", "AX: anxiolytic (probability that behavioral signature matches class)": "++ (5% ≤ ++ <25%)", "CE: cognitive enhancer (probability that behavioral signature matches class)": "+++ (25% ≤ +++ <50%)", "DP: anti-depressant (probability that behavioral signature matches class)": "++ (5% ≤ ++ <25%)", "HA: hallucinogen (probability that behavioral signature matches class)": "+ (LOQ ≤ + <5%)", "MS: mood stabilizer (probability that behavioral signature matches class)": "+ (LOQ ≤ + <5%)", "PS: anti-psychotic (probability that behavioral signature matches class)": "++ (5% ≤ ++ <25%)", "SD: sedative hypnotic (probability that behavioral signature matches class)": "+ (LOQ ≤ + <5%)", "UN: uncharacterized CNS activity (probability that behavioral signature matches class)": "+ (LOQ ≤ + <5%)", "XG: anxiogenic (probability that behavioral signature matches class)": "+ (LOQ ≤ + <5%)"},
      {"smiles": "FC1(F)CN[C@H]([C@H]2OCCc3ccccc32)C1", "note": "[Compound I-63, (S)-4,4-difluoro-2-((S)-isochroman-1-yl)pyrrolidine]", "AD: ADHD (probability that behavioral signature matches class)": "+ (LOQ ≤ + <5%)", "AG: analgesic (probability that behavioral signature matches class)": "+ (LOQ ≤ + <5%)", "AX: anxiolytic (probability that behavioral signature matches class)": "+ (LOQ ≤ + <5%)", "CE: cognitive enhancer (probability that behavioral signature matches class)": "+ (LOQ ≤ + <5%)", "DP: anti-depressant (probability that behavioral signature matches class)": "+ (LOQ ≤ + <5%)", "HA: hallucinogen (probability that behavioral signature matches class)": "+ (LOQ ≤ + <5%)", "MS: mood stabilizer (probability that behavioral signature matches class)": "+ (LOQ ≤ + <5%)", "PS: anti-psychotic (probability that behavioral signature matches class)": "+ (LOQ ≤ + <5%)", "SD: sedative hypnotic (probability that behavioral signature matches class)": "+ (LOQ ≤ + <5%)", "UN: uncharacterized CNS activity (probability that behavioral signature matches class)": "+ (LOQ ≤ + <5%)", "XG: anxiogenic (probability that behavioral signature matches class)": "+ (LOQ ≤ + <5%)"}
    ]}
  ]
}
